≈ marks a conversion by molar mass, not a printed value. Where two headings read alike, the source gives them in different places.
Tests used:
[1] = Solubility in 0.1 N HCl, PBS buffer, FaSSIF and FeSSIF; type: physicochemical; conditions: thermodynamic from solid
Protocol: For testing solubility, saturated solutions of selected compounds of formula I are prepared in four different systems and compared to the solubility of entacapone. The solubility is tested in 0.1 N HCl (pH 1), PBS buffer (pH 7.4) and in two simulated gastric fluids, FaSSIF at pH 6.5 (for fasting state) and FeSSIF at pH 5.0 (for fed state) at ambient temperature. The content of the FaSSIF simulated gastric fluid is as follows:
The solubility testing is carried out by the following method: An excess amount of each compound is added to a 0.1 N HCl, PBS buffer, FeSSIF and FaSSIF. The suspensions are shaken for 10 min. After centrifugation the concentration is determined by HPLC. Reversed phase gradient HPLC method, column YMC Pro C8, 50 mm×4.0 mm, 3 μm, Eluent A: Water:trifluoroacetic acid (100:0.5 (v/v)), Eluent B: Acetonitrile:trifluoroacetic:acid (100:0.5 (v/v)). Column temperature 30° C., Flow rate 3.0 mL/min, Detection wavelength: 220 nm

[2] = Chemical hydrolysis stability at pH 1 and pH 7.4 (HPLC); type: physicochemical; conditions: 37° C., over 12 h
Protocol: The stability of compounds of the present invention is tested at pH 1 and at pH 7.4. The testing is carried out by the following HPLC method:
Chemical hydrolysis rates t1/2 [h] of selected compounds of formula I are determined in 0.1 N HCl (pH 1) and PBS buffer (pH 7.4) solution. Solutions are prepared by dissolving an appropriate amount of compound in 0.1 N HCl and PBS buffer solution. Samples were withdrawn at designated time intervals and analysed for remaining prodrug by HPLC at 37° C. over 12 h.
Reversed phase gradient HPLC method, column YMC Pro C8, 50 mm×4.0 mm, 3 μm, Eluent A: Water:trifluoroacetic acid (100:0.5 (v/v)), Eluent B: Acetonitrile:trifluoroacetic:acid (100:0.5 (v/v)). Column temperature 30° C., Flow rate 3.0 mL/min, Detection wavelength: 220 nm
For evaluation, the peak area of the respective compound from the first injection is defined as 100% relative concentration. The peak areas of all other subsequent injections are calculated in percentage relating to this standard. (relative concentration in %). The relative concentrations are plotted in a logarithmic scale (ln) against the injection times. Based on the assumption of a first order kinetic, the rate constant and half life times (t1/2 [h]) can be calculated.

[3] = Log D (pH 7.4) by isocratic HPLC; type: physicochemical; conditions: YMC Pro C18 column, phosphate buffer pH 7.4/acetonitrile 45/55
Protocol: LogD is an indicator for absorption and lipophilicity for ionized compounds under defined pH conditions and is measured by applying an isocratic HPLC Method at pH 7.4.
The log D has been tested at pH 7.4. The testing has been carried out by the following method: Isocratic HPLC method: Column YMC Pro C18, 150 mm×4.0 mm, 3 μm, Eluent Phosphate buffer pH 7.4/acetonitrile (45/55, (v/v)), Runtime 15-60 min, Flow rate 1.2 ml/min, Detection wavelength: 220 nm

[4] = Permeability in Caco-2 cells, apical to basolateral; type: in vitro ADME; design: dose or concentration left out as unconfirmed; conditions: human; 21d Caco-2 monolayer, apical pH 6.5 to basolateral pH 7.4, 60 minutes
Text: The human adenocarcinoma cell line Caco-2 is used as an in vitro system to predict oral absorption. These cells serve as a model of small bowel tissue and permeation through these cells is a predictor for gastro-intestinal absorption. Further to being a model for oral absorption, permeability in Caco-2 cells may be predictive for the blood brain barrier permeability (P. Garberg et al.; Toxicology in vitro 19 (2005); 299-334). […] The permeability in Caco-2 cells has been tested by the following method:
The permeability of selected compounds of formula I across Caco-2 (21d Caco-2-culture) monolayer in the apical to basolateral direction is investigated. Control substances were ^3H-propranolol and ^3H-mannitol.
The nominal concentration of the test items is […]. The pH value is set to 6.5 for the apical transport medium and to 7.4 for the basolateral medium. Samples are obtained following 60 minutes (120 minutes for control samples) incubation from the basolateral receiver chamber. At sampling time approximately 600 μL of each well are transferred into an eppendorf vial and stored between −12° and −30° C. until HPLC or LC-MS/MS analysis. The control substances are quantified by liquid scintillation.

[5] = Storage stability at ambient temperature; type: physicochemical; conditions: glass bottles, more than two years, reanalysis by HPLC/MS and NMR
[6] = Solubility in Labrasol and TPGS/PG formulations; type: physicochemical; conditions: Labrasol, oil or lipid; read-out: Solubility Labrasol ®
Protocol: Selected lipophilic carbonate compounds of formula I with promising Caco-2 permeabilities are formulated with different lipids/lipophilic excipients and/or micelles forming compounds in order to increase their solubilities. The following formulations are prepared by mixing the ingredients mentioned below: • i) Formulations comprising solubilizers in the form of lipides/lipophilic excipients: • ia) Formulation comprising Labrasol® and the selected compounds of Formula I • Labrasol®: • Caprylocaproyl macrogol-8-glyceride (CAS No. 85536-07-8 and 84963-88-2). This is a mixture of mono-, di- and triesters of glycerol and of PEG 400 with medium-chain fatty acids (C8-C10) which is marketed, for example, by Gattefossé under the mark Labrasol®; Labrasol® has an HLB value (hydrophil-lipophil-balance, Griffin, W. C.: Classification of surface active agents by HLB, J. Soc. Cosmet. 1, 1949) of 14 and has the following composition by weight:
• ib) Formulation comprising NanoSolve® 5401 (Lipoid GmbH, Germany) and the selected compounds of formula I • ic) Formulation comprising TPGS/PG in a weight ratio of 25% by weight of TPGS to 75% by weight of PG and the selected compounds of formula I. • PG: propylene glycol • TPGS: Vitamin E TPGS NF (d-α-tocopheryl polyethylene glycol 1000 succinate) which is marketed, for example, by Eastman Chemical Co • ii) Formulation comprising a micelles forming agent: • iia) Aqueous formulation comprising 30% by weight of Cremophor® RH 40 (relating to the weight of the aqueous phase) in water and the selected compounds of formula I • Cremophor® RH 40: • Generic names: • Polyoxyl 40 Hydrogenated Castor Oil (USP/NF). • Macrogol-Glycerolhydroxystearat (DAB). • Polyoxyethylenglyceroltrihydroxystearat (DAC). • Cremophor RH 40 is a non-ionic solubilizer and emulsifying agent obtained by reacting 45 moles of ethylene oxide with 1 mole of hydrogenated castor oil. The main constituent of Cremophor RH 40 is glycerol polyethylene glycol oxystearate, which, together with fatty acid glycerol polyglycol esters, forms the hydrophobic part of the product. The hydrophilic part consists of polyethylene glycols and glycerol ethoxylate. Cremophor RH 40 is a white to yellowish thin paste at 20° C. The HLB value lies between 14 and 16. Cremophor RH 40 is marketed by BASF AG.
The solubility of selected compounds of formula I in these formulations is measured and compared to the solubility of the compounds in 0.1N HCl (pH 1.0), PBS buffer (pH 7.4), and two simulated gastric fluids (i.e., FaSSIF (pH 6.5) simulating fasting sate and FeSSIF (pH 5.0) simulating fed state) (see above for details).

- solubility at 10 min ([1]; 0.1 N HCl, pH 1, simulated gastric fluid, Table 11, maximum solubility, read-out: Solubility 0.1N HCl pH 1.0): 50 µg/mL (≈ 0.164 mM)
- solubility at 10 min ([1]; 0.1 N HCl, pH 1, simulated gastric fluid, ambient temperature, shaken 10 min, read-out: Solubility 0.1N HCl Ph 1.0): 50 µg/mL (≈ 0.164 mM)
- solubility at 10 min ([1]; FaSSIF, pH 6.5, fassif, Table 11, read-out: Solubility FaSSIF pH 6.5): 150 µg/mL (≈ 0.491 mM)
- solubility at 10 min ([1]; FaSSIF, pH 6.5, fassif, fasting state fluid, ambient temperature, read-out: Solubility FaSSIF Ph 6.5): 150 µg/mL (≈ 0.491 mM)
- solubility at 10 min ([1]; FeSSIF, pH 5, fessif, Table 11, read-out: Solubility FeSSIF pH 5.0): 990 µg/mL (≈ 3.24 mM)
- solubility at 10 min ([1]; FeSSIF, pH 5, fessif, fed state fluid, ambient temperature, read-out: Solubility FeSSIF Ph 5.0): 990 µg/mL (≈ 3.24 mM)
- solubility at 10 min ([1]; PBS buffer, pH 7.4, aqueous buffer, Table 11, read-out: Solubility PBS pH 7.4): 1350 µg/mL (≈ 4.42 mM)
- solubility at 10 min ([1]; PBS buffer, pH 7.4, aqueous buffer, ambient temperature, read-out: Solubility PBS Ph 7.4): 1350 µg/mL (≈ 4.42 mM)
- t1/2 at pH 1 ([2]; 0.1 N HCl): stable
- t1/2 at pH 7.4 ([2]; PBS buffer): stable
- chromatographic logD [3]: 0.5
- Papp A→B at 60 min [4]: 17 ×10⁻⁶ cm/s
- degradation on storage [5]: without degradation
- solubility [6]: 23000 µg/mL (≈ 75.3 mM)
Structure (SMILES): CCN(CC)C(=O)/C(C#N)=C/c1cc(O)c(O)c([N+](=O)[O-])c1 [entacapone, (E)-N,N-diethyl-2-cyano-3-(3,4-dihydroxy-5-nitrophenyl)acrylamide]
